Assay results as given in US20060159715A1, “Conjugate of fine porous particles with polymer molecules and the utilization thereof” (priority 2003, published 2006).

Settings: L-DOPA added after three-hour incubation in phosphate buffer; FIG. 5
Source text: Hydroquinone was supported on conjugate in the same manner as in Example 4 except that hydroquinone was used in place of pyrene. Hydroquinone and clay particles-supported hydroquinone were examined for the resistance to the oxidation of L-DOPA.

Oc1ccc(O)cc1 [hydroquinone, Hydroquinone]
antioxidation property against L-DOPA oxidation: completely lost antioxidation property
